Results: the NIST ThermoML archive (doi:10.1021/acs.jced.7b00106)

Settings: Liquid, Hot wire method

FC(F)(F)/C=C/Cl [(E)-1-chloro-3,3,3-trifluoroprop-1-ene]
Settings | thermal conductivity [W/m/K]
282.03 K, 55362 kPa | 0.1085
282.04 K, 64705 kPa | 0.1107
282.05 K, 39515 kPa | 0.1034
282.05 K, 46209 kPa | 0.1055
282.08 K, 33242 kPa | 0.1012
282.1 K, 27075 kPa | 0.09876
282.11 K, 16012 kPa | 0.09449
282.11 K, 20964 kPa | 0.09638
282.15 K, 46205 kPa | 0.1054
282.15 K, 55358 kPa | 0.108
282.15 K, 64700 kPa | 0.1104
282.16 K, 39512 kPa | 0.103
282.18 K, 10959 kPa | 0.09237
282.2 K, 33255 kPa | 0.101
282.21 K, 6234 kPa | 0.09065
282.22 K, 3104 kPa | 0.08891
282.23 K, 27070 kPa | 0.09861
282.24 K, 198 kPa | 0.08741
282.24 K, 16024 kPa | 0.0943
282.24 K, 20959 kPa | 0.09631
282.31 K, 10962 kPa | 0.09207
282.35 K, 6225 kPa | 0.09024
282.37 K, 3126 kPa | 0.08877
282.38 K, 188 kPa | 0.08744
282.5 K, 55349 kPa | 0.108
282.5 K, 64686 kPa | 0.1105
282.52 K, 39509 kPa | 0.103
282.52 K, 46199 kPa | 0.1053
282.57 K, 33243 kPa | 0.101
282.6 K, 27082 kPa | 0.09879
282.62 K, 16026 kPa | 0.09446
282.62 K, 20964 kPa | 0.09651
282.63 K, 64675 kPa | 0.1105
282.64 K, 55348 kPa | 0.1078
282.67 K, 39508 kPa | 0.103
282.67 K, 46193 kPa | 0.105
282.71 K, 10958 kPa | 0.09238
282.73 K, 33247 kPa | 0.1009
282.75 K, 6236 kPa | 0.09029
282.75 K, 27089 kPa | 0.09858
282.78 K, 3125 kPa | 0.08898
282.78 K, 20962 kPa | 0.09627
282.79 K, 16015 kPa | 0.09427
282.8 K, 194 kPa | 0.08765
282.88 K, 10957 kPa | 0.09201
282.92 K, 6218 kPa | 0.09006
282.95 K, 3110 kPa | 0.08875
282.97 K, 194 kPa | 0.08733
282.99 K, 64664 kPa | 0.1105
283 K, 55335 kPa | 0.1078
283.04 K, 46194 kPa | 0.1053
283.06 K, 39510 kPa | 0.1032
283.12 K, 33245 kPa | 0.1008
283.15 K, 64649 kPa | 0.1103
283.16 K, 27095 kPa | 0.09871
283.18 K, 20963 kPa | 0.09653
283.18 K, 55341 kPa | 0.1078
283.21 K, 16028 kPa | 0.09435
283.21 K, 46185 kPa | 0.105
283.24 K, 39508 kPa | 0.103
283.29 K, 10953 kPa | 0.09216
283.29 K, 33245 kPa | 0.1006
283.34 K, 27084 kPa | 0.09839
283.35 K, 6234 kPa | 0.09024
283.38 K, 3103 kPa | 0.08892
283.38 K, 20960 kPa | 0.09617
283.39 K, 16020 kPa | 0.09411
283.42 K, 178 kPa | 0.08755
283.5 K, 10953 kPa | 0.09198
283.54 K, 64641 kPa | 0.1105
283.55 K, 6234 kPa | 0.08992
283.57 K, 55328 kPa | 0.108
283.59 K, 3103 kPa | 0.08855
